Values joined by “and” are separate entries in the source; they are usually repeats but may differ in a detail not shown here. Identical values can stand only once. Blank lines part the entries; values can stand above or below the molecule they belong to. Ends that are not written are not given here. Peptide text beside a SMILES is read from it.
Key:
[1] = Intravenous administration of 14C-ISF402: radioactivity in blood and serum; assay type: in vivo, rat
Procedure: (§1) ^14C-ISF402 (22.7 μCi/mg) was dissolved in water and diluted with unlabelled ISF402 to a concentration of 30 mg/mL for oral and 4.5 mg/mL for intravenous (IV) administration. The day before the experiment 16-18 week female Zucker fa/fa rats (300-400 g) rats were fasted overnight with free access to water before oral administration of ^14C-ISF402 by gavage at 30 mg/kg, 260-263.7 kBq/kg (5.0-5.1 μCi/kg) or IV with 4.5 mg/kg, 103.0-107.3 kBg/kg (1.98-2.06 μCi/kg). After administration of ^14C-ISF402 rats were placed into metabolic cages with free access to food and water.
(§2) Blood samples were collected from the tail vein over the 7 hour time course. Urine was collected at 4 and 12 hours after administration. Whole blood samples (100 μL) were collected and placed into dry ice then stored at −80° C. 50 μL of serum from whole blood was collected into T-MG clotting capiject tubes (Terumo, Elkton, Md.). Sera were separated by centrifuging blood for 90 seconds at 3000×g at room temperature. 100 μL and 50 μL of whole blood and serum, respectively was used for the measurement of radioactivity. The whole blood and serum samples were solubilized with 2 volumes of sample, 2 volumes of 1.4M NaOH and 1 volume of 30 percent hydrogen peroxide. The final volume was made to 1 mL by the addition of distilled water. 4 mL of HiSafe3 Optiphase (PerkinElmer, Boston, Mass.) was added and radioactivity determined in a Wallac Scintillation counter.
(§3) Urine was frozen at −20° C. until analysed for radioactivity. After measuring the total volume of urine, 100 μL of urine and 100 μL ethanol was added to 4 mL scintillant. Samples were left overnight after the addition of scintillant then counted for radioactivity using a Wallac 1409 liquid scintillant counter (PerkinElmer, Boston, Mass.). Radioactivity in all samples was counted several times over the course of 4 weeks until readings were consistent. Radioactivity was expressed as μg equivalent (eq.)/mL. This was calculated from the dpm per mL of sample divided by the specific radioactivity of the peptide administered. The integrity of the radiolabelled peptide in serum and urine samples was determined by reverse phase HPLC as described above.

[2] = Oral administration of 14C-ISF402: radioactivity in blood, serum and urine; assay type: in vivo, rat
Procedure: as §1, §2, §3

Zinc-insulin hexamers = target: T1, Zinc-insulin hexamers (Bos taurus, UniProt P01317); assay: Circular dichroism of zinc-insulin hexamers (dispersal); assay type: biochemical, bovine; settings: Zn-insulin 1 mg/mL; for CD signal at 275 nm of Zn-insulin upon addition: ISF401 1 μL of 100 mM, EDTA 4 mM
T1 construct: Zinc-insulin hexamers were prepared by dissolving bovine insulin containing 0.6% zinc
T1 sequence (P01317 25-54 limits assumed): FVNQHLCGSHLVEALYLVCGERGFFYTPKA
T1 sequence (P01317 85-105 limits assumed): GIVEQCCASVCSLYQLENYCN
Procedure: Zinc-insulin hexamers were prepared by dissolving bovine insulin containing 0.6% zinc in […] then raising the pH to 7.2-7.4 by addition of NaOH. HEPES buffer was added to give a final solution of 1 mg/mL insulin in 25 mM HEPES buffer (pH 7.2). The CD spectrum of insulin or ISF401 was measured from […] at 20° C. on a Jasco J-810 spectropolarimeter equipped with a PFD 423S/L Peltier type temperature controller. 200 μL of sample was placed in a quartz cuvette, with path length of 1 mm, in the spectropolarimeter and the CD spectrum was recorded. Each spectrum represents an average of 3-5 scans performed at 100 nm/min with a band width of 1 nm. The effect of ethylenediamine tetraacetic acid (EDTA) and ISF401 were measured by adding an aliquot of EDTA (4 mM) or an aliquot of ISF401 (100 mM) and measuring the CD spectrum.
To test dispersal of insulin hexamers by ISF401, circular dichroism (CD) was used.
The CD signal at 275 nm was used to measure the association state of insulin in the presence of ISF401 (1 μL of 100 mM), EDTA ([…] of 4 mM) and deionised water (1 μL).

hexameric insulin = target: T2, hexameric insulin (Homo sapiens, UniProt P01308); assay: Size exclusion chromatography of hexameric insulin with test peptide; assay type: biochemical
T2 construct: correspond to dimeric insulin (11.8 kDa) and monomeric (5.8 kDa) insulin respectively; purchased Sigma 19278
T2 sequence (P01308 25-54 limits assumed): as the sequence (P01317 25-54 limits assumed) above, with A30T counted along it
T2 sequence (P01308 90-110 limits assumed): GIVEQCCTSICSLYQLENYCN
Procedure: Size exclusion chromatography was used to study the effect of GHTD-amide (ISF401) on hexameric insulin. Recombinant Human Insulin solution (Sigma 19278) was diluted to 2 mg/mL with 10 mM Tris pH 7.4 and dialysed against 10 mM Tris pH 7.4 (to remove HEPES which absorbs strongly at 214 nm and coelutes with GHTD-amide). Insulin stock solution at 1.5 mg/mL was then prepared by addition of phenol to 4 mM, NaCl to 140 mM and ZnCl2 to 100 μM. Prior to size exclusion chromatography stock insulin was mixed either with water or test peptide to give a final concentration 1 mg/mL each of insulin and test peptide when applicable, and 10 mM Tris pH 7.4, 140 mM NaCl and […] ZnCl2 then incubated at room temperature for 1 hour. Samples of insulin or mixtures (800 μL) were then subjected to size exclusion chromatography using a 1×30 cm Superdex 75 HR 10/30 column at a flow rate of 0.1 mL min^−1 with an eluent comprising Tris-buffered isotonic saline (140 mM NaCl, 10 mM Tris/HCl pH 7.4, 60 μM ZnCl2) at a flow rate of 0.1 mL min^−1, UV detection at 214 nm and 276 nm, and collection of 0.5 mL fractions for protein determination. Protein size standards Aprotinin (6 kDa) and Carbonic Anhydrase (29 kDa) run under the same conditions eluted at 18.85 mL and 14.75 mL respectively. The gel matrix, which has a fractionation range of 3,000 to 70,000 Da, and sample volume loaded were chosen to ensure that the two peptides remained in contact within the gel matrix thereby allowing interaction to occur between the two during the separation process. The concentration of insulin was maintained at 1 mg/mL at pH 7.4 in the presence of 2 Zn^2+/hexamer since it has been shown that at this concentration insulin exists predominantly as Zn^2+-dependent hexamers.

female Zucker fa/fa rats = assay: Intravenous injection of female Zucker fa/fa rats: blood glucose, serum insulin, C-peptide, triglyceride; assay type: in vivo, rat; settings: iv, Lispro insulin 1 U/kg alone, 60 minutes after injection
[3] = IV 4.5 mg/kg, 2 minutes after injection
[4] = IV 4.5 mg/kg, 90 minutes after injection, assuming radioactivity is intact ISF402
[5] = after incubation with test peptide, 276 nm

- concentration in serum (radioactivity) [1, 3]: 24800 ± 300 ng/mL
- concentration in whole blood (radioactivity) [1, 3]: 12000 ± 1000 ng/mL
- concentration in serum (radioactivity) [1, 4]: 8000 ± 2000 ng/mL
- concentration in whole blood (radioactivity) [1, 4]: 3400 ± 1300 ng/mL
- level at 7 h ([1]; rat, in vivo, IV 4.5 mg/kg, 7 hours, read-out: concentration detected at the conclusion of the time course): 2200 ± 1500 ng/mL
- integrity of peptide in serum by reverse phase HPLC ([1]; serum collected 2 minutes after IV administration): intact
- concentration in whole blood and sera ([2]; 30 minutes after oral dosing): Approximately 4 μg/mL
- time to appearance in the circulation after dosing ([2]; oral 30 mg/kg): ≤ 30 min
- concentration in whole blood (radioactivity) ([2]; oral 30 mg/kg, 7 hours): 44200 ± 2500 ng/mL
- concentration in sera (radioactivity) ([2]; oral 30 mg/kg, after 90 minutes): 22100 ± 4900 ng/mL
- concentration in whole blood (radioactivity) ([2]; oral 30 mg/kg, after 90 minutes, assuming labelled ISF402 still intact): 23700 ± 2100 ng/mL
- level at 2 h ([2]; rat, in vivo, 30 mg/kg, 120 minutes after oral dosing, read-out: ISF402 levels in the circulation): > 20000 ng/mL
- share of radioactivity in urine associated with intact ISF402 ([2]; urine collected over 12 hours after administration): 47% and 46%
- radioactivity retrieved in urine, of the total radioactive ISF402 administered ([2]; urine, 12 hours): 0.97±0.13%
- share of radioactivity in urine associated with free Valine ([2]; urine, 12 hours after administration): 32%
Molecule: CC(C)[C@H](N)C(=O)N[C@@H](Cc1c[nH]cn1)C(=O)N[C@H](C(=O)N[C@@H](CC(=O)O)C(N)=O)[C@@H](C)O [14C-ISF402] (H-VHTD-NH2)
- composition of radioactivity in urine ([2]; urine collected over 4 hours after dosing): mixture of degraded peptide and intact ISF402

Molecule: O=C(O)CN(CCN(CC(=O)O)CC(=O)O)CC(=O)O [EDTA, ethylenediamine tetraacetic acid, reference compound]
- CD signal at 275 nm of Zn-insulin upon addition (Zinc-insulin hexamers): increased

- molar excess to insulin at maximum dispersion of insulin hexamers (Zinc-insulin hexamers): 10 fold
- CD signal at 275 nm of Zn-insulin upon addition (Zinc-insulin hexamers): increased
- elution volume of emerging peak corresponding to dimeric insulin (11.8 kDa) (hexameric insulin; [5]): 15.085 mL
- elution volume of emerging peak corresponding to monomeric (5.8 kDa) insulin (hexameric insulin; [5]): 19.045 mL
Molecule: Gly-His-Thr-Asp-NH2 (GHTD-NH2) [ISF401]
- dissociation of hexameric insulin after incubation with test peptide (hexameric insulin; 1 mg/mL each of insulin and peptide, 1 hour room temperature, monitoring at 276 nm): cause the dissociation (disaggregation) of hexamers to dimeric and monomeric forms

Molecule: Lispro insulin: altered form of human insulin that does not form stable hexamers; Lispro (Humalog), Eli Lilly [reference compound]
- reduction in blood glucose (female Zucker fa/fa rats): 0.90 ± 0.77 mmol/L

Reference: patent US20090215669A1, “COMPOSITIONS AND METHODS FOR TREATMENT OF DIABETES” (DIA-B TECH LIMITED, priority 2005, published 2009)
